{"source": "patent US11242344B2", "about": "“(4-hydroxypyrrolidin-2-yl)-heterocyclic compounds and methods of use thereof” (Genentech, Inc., priority 2017, dated 2022)", "key": {"VHL Elongin B/C complex": {"target": "VHL Elongin B/C complex (Homo sapiens (Human), UniProt P40337)", "sequence (P40337 whole entry, looked up)": "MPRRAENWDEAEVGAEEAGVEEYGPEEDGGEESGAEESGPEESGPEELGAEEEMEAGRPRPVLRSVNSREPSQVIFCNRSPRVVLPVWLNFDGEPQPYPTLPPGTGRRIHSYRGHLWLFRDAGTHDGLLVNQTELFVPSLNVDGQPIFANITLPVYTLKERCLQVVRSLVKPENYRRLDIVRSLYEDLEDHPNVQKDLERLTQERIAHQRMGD", "sequence (Q15370 whole entry partner, looked up)": "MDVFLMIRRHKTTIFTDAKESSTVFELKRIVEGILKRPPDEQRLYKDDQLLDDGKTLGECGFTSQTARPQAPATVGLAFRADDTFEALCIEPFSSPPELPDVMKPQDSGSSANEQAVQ", "sequence (Q15369 whole entry partner, looked up)": "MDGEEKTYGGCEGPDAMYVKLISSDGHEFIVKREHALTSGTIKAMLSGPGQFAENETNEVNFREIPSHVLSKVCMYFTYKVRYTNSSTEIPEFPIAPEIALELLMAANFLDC", "assay": "Fluorescence Polarization (FP) VHL Binding Assay", "details": "VHL binding, FP assay; geometric mean where more than one measurement", "method_in_brief": "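Readout is polarization of a TAMRA-coupled VHL ligand (1.67 nM final) displaced from the VHL(E55-D213)/Elongin B/C complex (2.64 nM final) after 1 h incubation at room temperature in pH 8.0 Tris buffer with 1% DMSO. Data normalized to no-VHL and compound-free controls, with compound fluorescence subtracted, and fitted by four-parameter curve for IC50.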"}, "BRD4": {"target": "BRD4 (Homo sapiens (Human), UniProt O60885)", "assay": "BRD4 degradation assay in EOL-1 cells, high content fluorescence imaging", "assay_type": "cell-based", "details": "4 hours; for DC50: BRD4 immunofluorescence, read-out: EOL-1 EC50", "experimental": "PC3 (Steap-1) prostate cancer cells: PC3 (Steap-1) prostate cancer cells (PC3 cells overexpressing the surface protein Steap-1) were seeded on day 1 at a density of 200,000 cells/mL in 45 μl/well in cell plates in a 384 well Greiner/Perkin Elmer Cell Carrier TC Treated plate (part #6007430) in Assay Medium (RPMI, 10% FBS, 2 mM Glutamax). Cells were incubated overnight at 37° C. degrees. On day 2, compounds were serially diluted 3-fold in DMSO spanning the concentrations 10 mM to 8.6 nM, in 384 well clear polypropylene plates (Greiner Cat #781201). DMSO and 10 mM of a control PROTAC (dBET1, as described in WO 2017/024317, p. 235, structure below) (control compound) were added to designated wells. Compounds and controls were diluted 50-fold (2 μl of DMSO stock into 98 μl) into Assay Medium. 5 μl of the diluted compounds was transferred to the cell plates. The final top concentration of the test compounds in the cell plates was 20 μM. Cell plates were incubated at 37° C., for 4 hours. Fixation and permeabilization were carried out using a Biotek EL406 plate washer and dispenser as follows. Cells were fixed by addition of 15 μL of 16% paraformaldehyde (Electron Microscopy Sciences #15710-S) directly to the 50 μL cell culture medium in each well using the peristaltic pump 5 μL cassette on a Biotek EL406 (final concentration of formaldehyde was 3.7% w/v). Samples were incubated 30 minutes. Well contents were aspirated and 50 μL/well of Phosphate Buffered Saline (PBS) containing 0.5% w/v bovine serum albumen, 0.5% v/v Triton X-100 (Antibody Dilution Buffer) was added to each well. Samples were incubated for 30 minutes. Well contents were aspirated and washed 3 times with 100 μL/well of PBS.\nEOL-1 cells: The BRD4 degradation assay was performed on EOL-1 cells using the same procedure as described above for PC3 (Steap-1) prostate cancer cells, except EOL-1 cells were seeded at 1,000,000 cells/mL. Following aspiration and washing of the well contents with 100 μL/well of PBS, 40 μL PBS plus 10% normal goat serum was added per well for 20 minutes at room temperature.\nFor both the PC3 and EOL-1 cell assays, immunofluorescence staining of BRD4 was carried out using a Biotek EL406 plate washer and dispenser as follows. The well supernatant was aspirated from the wells and 25 μL/well of rabbit mAb Anti-BRD4 [EPR5150(2)] abeam 128874 diluted 1:500 in Antibody Dilution Buffer is dispensed. Samples were incubated for 2 hours at room temperature. Samples were washed 4 times with 100 μL/well of PBS. 25 μL/well of secondary antibody solution (Goat Anti-Rabbit IgG, DyLight 488 Conjugated Highly Cross-adsorbed #35553 1:1000) diluted 1:1000 and Hoechst 33342 1 μg/ml diluted in Antibody Dilution Buffer) were dispensed into each well. 16 wells of the plate, which were designated as ‘no primary antibody” wells, received only Antibody Dilution Buffer (without anti-BRD4 antibody). Samples were incubated for 2 hours at room temperature. Samples were washed 3 times with 100 μL/well of PBS using a Biotek EL406. Quantitative fluorescence imaging of BRD4 was carried out using a Phenix (Perkin Elmer). Fluorescence images of the samples (Channel 1: Hoechst33342 (DNA stain); Channel 2: 488 nm (BRD4 stain)) were acquired. Channel 1 (DNA stain) was used to define the “Region of Interest” (ROI) nuclear region. Measurements of BRD4 average immunofluorescence intensity within the ROI (nuclear region), were made on a per cell basis and averaged over all the measured cells. Data analysis was carried out using Genedata Screener Software, with DMSO and “no primary antibody” samples being used to define the 0% and 100% changes in BRD4. The “Robust Fit” method was used to define the inflexion point of curve (EC50) and the plateau of the maximal effect (Sinf). The Sinf value reports degradation as percent change in protein level, so complete loss of the protein target is −100%. […]"}}, "data": [{"smiles": "Cc1ncsc1-c1ccc([C@]2(C)NC(C3C[C@@H](O)CN3C(=O)[C@@H](NC(=O)CCCCCCCCCCNC(=O)c3cc4c(cc3CS(C)(=O)=O)-c3cn(C)c(=O)c5[nH]cc(c35)CN4c3ncc(F)cc3F)C(C)(C)C)=NC2=O)cc1", "note": "(single isomer, unassigned) [Example 1005.1]", "values": [{"measurement": "IC50", "setting": "VHL Elongin B/C complex", "result": 255, "unit": "µM"}, {"measurement": "DC50", "setting": "BRD4", "result": "> 20", "unit": "µM"}]}, {"smiles": "Cc1ncsc1-c1ccc([C@]2(C)NC(C3C[C@@H](O)CN3C(=O)C(c3cc(OCCCCCNC(=O)c4cc5c(cc4CS(C)(=O)=O)-c4cn(C)c(=O)c6[nH]cc(c46)CN5c4ncc(F)cc4F)no3)C(C)C)=NC2=O)cc1", "note": "(single isomer, unassigned) [Example 1001.1]", "values": [{"measurement": "IC50", "setting": "VHL Elongin B/C complex", "result": 16.9, "unit": "µM"}, {"measurement": "DC50", "setting": "BRD4", "result": "> 20", "unit": "µM"}]}, {"smiles": "Cc1ncsc1-c1ccc([C@]2(C)NC(C3C[C@@H](O)CN3C(=O)C(c3cc(OCCCCCNC(=O)c4cc5c(cc4CS(C)(=O)=O)-c4cn(C)c(=O)c6[nH]cc(c46)CN5c4ncc(F)cc4F)no3)C(C)C)=NC2=O)cc1", "note": "(single isomer, unassigned) [Example 1001.3]", "values": [{"measurement": "IC50", "setting": "VHL Elongin B/C complex", "result": "> 100", "unit": "µM"}, {"measurement": "DC50", "setting": "BRD4", "result": "> 20", "unit": "µM"}]}, {"smiles": "Cc1ncsc1-c1ccc([C@]2(C)NC(C3C[C@@H](O)CN3C(=O)C(c3cc(OCCCCCNC(=O)c4cc5c(cc4CS(C)(=O)=O)-c4cn(C)c(=O)c6[nH]cc(c46)CN5c4ncc(F)cc4F)no3)C(C)C)=NC2=O)cc1", "note": "(single isomer, unassigned) [Example 1001.2]", "values": [{"measurement": "IC50", "setting": "VHL Elongin B/C complex", "result": 0.795, "unit": "µM"}, {"measurement": "DC50", "setting": "BRD4", "result": 0.000865, "unit": "µM"}, {"measurement": "EOL-1 Sinf (%)", "setting": "BRD4; maximum degradation, percent change in protein level (-100% = complete loss)", "result": "−96.4", "unit": "%"}]}]}
